Assay results taken from US20260027116A1, “Methods of Treating Chronic Graft-Versus-Host Disease Following Allogeneic Hematopoietic Stem Cell Transplantation” (Kadmon Corporation, LLC, priority 2022, published 2026).

Tested on: patients with cGVHD
Settings: Cohort 1 200 mg QD
Method: All responses were assessed by the investigators.
Reported Adverse Events. […] All-cause mortality data collected during the study were assessed for all enrolled participants. Disease progression related death was not reported as AE.
Number of Participants With Treatment-emergent Adverse Events (TEAEs), and Treatment-emergent Serious Adverse Events (TESAEs). […] TEAEs included both SAEs and non-SAEs. […] Analysis was performed on safety population which included all participants who received at least 1 dose of study medication.

CC(C)NC(=O)COc1cccc(-c2nc(Nc3ccc4[nH]ncc4c3)c3ccccc3n2)c1 [Belumosudil, 2-{3-[4-(1H-indazol-5-ylamino)-2-quinazolinyl]phenoxy}-N-(propan-2-yl) acetamide]
2/17 (11.76%): Hyperglycemia: Affected/At Risk (%) | Influenza: Affected/At Risk (%) | Obesity: Affected/At Risk (%) | Oral candidiasis: Affected/At Risk (%) | Pain in extremity: Affected/At Risk (%) | Productive cough: Affected/At Risk (%) | Proteinuria: Affected/At Risk (%)
1/17 (5.88%): Graft versus host disease in gastrointestinal tract: Affected/At Risk (%) | Haematuria: Affected/At Risk (%) | Hair growth abnormal: Affected/At Risk (%) | Hodgkin's disease recurrent: Affected/At Risk (%) | Hordeolum: Affected/At Risk (%) | Hot flush: Affected/At Risk (%) | Hyperuricaemia: Affected/At Risk (%) | Hypoaesthesia: Affected/At Risk (%) | Hypogonadism: Affected/At Risk (%) | Hypokalaemia: Affected/At Risk (%) | Hypomagnesaemia: Affected/At Risk (%) | Hyponatraemia: Affected/At Risk (%) | Hypophosphataemia: Affected/At Risk (%) | Hypothyroidism: Affected/At Risk (%) | Hypoxia: Affected/At Risk (%) | Impaired healing: Affected/At Risk (%) | Influenza like illness: Affected/At Risk (%) | Irritability: Affected/At Risk (%) | Leukaemia recurrent: Affected/At Risk (%) | Leukocytosis: Affected/At Risk (%) | Ligament sprain: Affected/At Risk (%) | Limb injury: Affected/At Risk (%) | Muscle spasms: Affected/At Risk (%) | Muscle spasticity: Affected/At Risk (%) | Musculoskeletal chest pain: Affected/At Risk (%) | Myalgia: Affected/At Risk (%) | Nail disorder: Affected/At Risk (%) | Neck pain: Affected/At Risk (%) | Nephrotic syndrome: Affected/At Risk (%) | Neutrophil count decreased: Affected/At Risk (%) | Nocturia: Affected/At Risk (%) | Oropharyngeal pain: Affected/At Risk (%) | Orthopnoea: Affected/At Risk (%) | Osteonecrosis: Affected/At Risk (%) | Overdose: Affected/At Risk (%) | Palpitations: Affected/At Risk (%) | Pericardial effusion: Affected/At Risk (%) | Peripheral coldness: Affected/At Risk (%) | Platelet count decreased: Affected/At Risk (%) | Pleural effusion: Affected/At Risk (%) | Pneumonia: Affected/At Risk (%) | Pollakiuria: Affected/At Risk (%) | Pruritus: Affected/At Risk (%) | Pseudomonas infection: Affected/At Risk (%) | Pyrexia: Affected/At Risk (%)
7: Hyperkalaemia: # Events
4: Headache: # Events
2: Hyperglycemia: # Events | Hypoaesthesia: # Events | Hypothyroidism: # Events | Influenza: # Events | Myalgia: # Events | Obesity: # Events | Pain in extremity: # Events | Pneumonia: # Events | Productive cough: # Events | Proteinuria: # Events
6/17 (35.29%): Nausea: Affected/At Risk (%)
10: Nausea: # Events
1 (6): Grade ≥3 Lung infection or pneumonia, No. (%)
5/17 (29.41%): Hypertension: Affected/At Risk (%)
6: Hyperuricaemia: # Events | Muscular weakness: # Events
0: Gynaecomastia: # Events | Hyperhidrosis: # Events | Hyperthyroidism: # Events | Hypertriglyceridaemia: # Events | Hypocalcaemia: # Events | Hypothermia: # Events | Insomnia: # Events | Joint range of motion decreased: # Events | Lacrimation increased: # Events | Macular degeneration: # Events | Migraine: # Events | Neuropathy peripheral: # Events | Non-cardiac chest pain: # Events | Oedema: # Events | Oesophageal ulcer: # Events | Osteopenia: # Events | Osteoporosis: # Events | Paraesthesia: # Events | Peripheral sensory neuropathy: # Events | Phlebitis: # Events | Photophobia: # Events | Pneumonia respiratory syncytial viral: # Events | Presyncope: # Events | Pulmonary mass: # Events
0/17 (0%): Gynaecomastia: Affected/At Risk (%) | Hyperhidrosis: Affected/At Risk (%) | Hyperthyroidism: Affected/At Risk (%) | Hypertriglyceridaemia: Affected/At Risk (%) | Hypocalcaemia: Affected/At Risk (%) | Hypothermia: Affected/At Risk (%) | Insomnia: Affected/At Risk (%) | Joint range of motion decreased: Affected/At Risk (%) | Lacrimation increased: Affected/At Risk (%) | Macular degeneration: Affected/At Risk (%) | Migraine: Affected/At Risk (%) | Neuropathy peripheral: Affected/At Risk (%) | Non-cardiac chest pain: Affected/At Risk (%) | Oedema: Affected/At Risk (%) | Oesophageal ulcer: Affected/At Risk (%) | Osteopenia: Affected/At Risk (%) | Osteoporosis: Affected/At Risk (%) | Paraesthesia: Affected/At Risk (%) | Peripheral sensory neuropathy: Affected/At Risk (%) | Phlebitis: Affected/At Risk (%) | Photophobia: Affected/At Risk (%) | Pneumonia respiratory syncytial viral: Affected/At Risk (%) | Presyncope: Affected/At Risk (%) | Pulmonary mass: Affected/At Risk (%)
3: Nasal congestion: # Events | Oedema peripheral: # Events | Oral candidiasis: # Events | Pain: # Events | Platelet count decreased: # Events | Pyrexia: # Events
3/17 (17.65%): Hyperkalaemia: Affected/At Risk (%) | Nasal congestion: Affected/At Risk (%) | Oedema peripheral: Affected/At Risk (%) | Pain: Affected/At Risk (%)
1: Graft versus host disease in gastrointestinal tract: # Events | Haematuria: # Events | Hair growth abnormal: # Events | Hodgkin's disease recurrent: # Events | Hordeolum: # Events | Hot flush: # Events | Hypogonadism: # Events | Hypokalaemia: # Events | Hypomagnesaemia: # Events | Hyponatraemia: # Events | Hypophosphataemia: # Events | Hypoxia: # Events | Impaired healing: # Events | Influenza like illness: # Events | Irritability: # Events | Leukaemia recurrent: # Events | Leukocytosis: # Events | Ligament sprain: # Events | Limb injury: # Events | Muscle spasms: # Events | Muscle spasticity: # Events | Musculoskeletal chest pain: # Events | Nail disorder: # Events | Neck pain: # Events | Nephrotic syndrome: # Events | Neutrophil count decreased: # Events | Nocturia: # Events | Oropharyngeal pain: # Events | Orthopnoea: # Events | Osteonecrosis: # Events | Overdose: # Events | Palpitations: # Events | Pericardial effusion: # Events | Peripheral coldness: # Events | Pleural effusion: # Events | Pollakiuria: # Events | Pruritus: # Events | Pseudomonas infection: # Events
8: Hypertension: # Events
4/17 (23.53%): Headache: Affected/At Risk (%) | Muscular weakness: Affected/At Risk (%)
